Test results published in PubChem BioAssay AID1996.
In brackets after ≈: the same amount, converted by molar mass.

Settings: buffer; pH 7.4; 200.0 µM

SMILES | solubility kinetic [µg/mL]
CC1CCC(NC(=O)C2CC(O)CN2S(=O)(=O)c2ccc([N+](=O)[O-])cc2)CC1 (centres undefined) | > 61.7
CC1=C(C)CC(C(=O)NCCCN2CCCC2=O)C(C(=O)O)C1 (centres undefined) | > 48.4
O=C(NCc1ccccc1F)C12CC3CC(CC(C3)C1)C2 | 1 (≈ 3.48 µM)
CCC(=O)Nc1ccc(NC(=O)c2ccc3ccccc3c2)cc1 | < 0.3
O=Cc1c(NCc2ccccc2F)c2ccccc2[nH]c1=O | 4.2 (≈ 14.2 µM)
CCc1cccc(C)c1NC(=S)N1CCCCC1c1cccnc1 (centres undefined) | 46.3 (≈ 136 µM)
COc1cc2c(cc1NC(=O)CCC(=O)O)oc1ccccc12 | 46.7 (≈ 149 µM)
CSCc1c(C(=O)Nc2ccc3c(c2)OCO3)oc2ccccc12 | 6.4 (≈ 18.7 µM)
CC1CCCC(N2CCN(C(=O)c3ccccc3F)CC2)C1 (centres undefined) | > 45.7
CSCCC(=O)N1CCCC(CO)(CCCc2ccccc2)C1 (centres undefined) | 31.7 (≈ 94.5 µM)
FC(F)Oc1ccc(NC(=S)NCc2cccnc2)cc1 | > 46.4
CN(C)C1(CNC(=O)Cc2ccccc2F)CCCCC1 | 42.2 (≈ 144 µM)
Cc1ccc2nc(CCc3nc4ccc(C)cc4[nH]3)[nH]c2c1.Cl | 8.9
Cc1cc(C)n2ncc(C(=O)O)c2n1 | > 28.7
C=CCN(c1ccccc1)S(=O)(=O)c1cccc(C(=O)NCc2ccco2)c1 | 23.9 (≈ 60.3 µM)
O=C(NCCNS(=O)(=O)c1ccccc1)c1ccc([N+](=O)[O-])cc1 | 51.1 (≈ 146 µM)
C=CCNc1nc(N)c([N+](=O)[O-])c(Nc2cccc(Cl)c2)n1 | 0.1 (≈ 0.312 µM)
CCOc1ccccc1OCCC(=O)Nc1ccc2c(c1)OCO2 | > 49.4
Cc1ccc(C2(O)CN3CCC2CC3)cc1.Cl (centres undefined) | > 38.1
Cc1ccccc1N1C(=O)CSC1=C(C#N)C#N | > 38.3
Cc1nn(-c2ccccc2)c(C)c1CN | > 30.2
Cc1ccccc1CC(=O)N1CCN(C(=O)c2ccco2)CC1 | > 46.9
Cc1cc(C(=O)Nc2ccccc2[N+](=O)[O-])cs1 | 1.6 (≈ 6.1 µM)
O=Cc1cn(CC(=O)Nc2ccccc2)c2ccccc12 | 4.1 (≈ 14.7 µM)
COC(=O)Nc1nncs1 | > 23.9
Cc1ccc(NC(=S)N2CCN(S(C)(=O)=O)CC2)cc1C | 9.1 (≈ 27.8 µM)
Nc1cccc(P(=O)(c2ccccc2)c2ccccc2)c1 | > 44
O=S(=O)(NCC1CCCO1)c1ccc(Cl)cc1 (centres undefined) | 25.5 (≈ 92.5 µM)

Now from value to compound:

solubility kinetic [µg/mL] | SMILES
3.6 (≈ 8.43 µM) | CCOc1ccc(Cl)cc1S(=O)(=O)N1CCC(C(=O)NCc2ccco2)CC1
15.1 (≈ 46.9 µM) | COC(=O)[C@H](c1ccccc1Cl)N1CCc2sccc2C1
> 46.1 | Cc1ccc2nc(NCCC(=O)O)nc(-c3ccccc3)c2c1
> 45.5 | Cc1cccc(-c2nnc(SCC(=O)N3CCCC3)o2)c1
35.5 (≈ 120 µM) | Cc1cc(OCC(=O)N(C)C2CCCCC2)ccc1Cl
12.1 (≈ 29.8 µM) | CCc1nc2ccccc2c(C(=O)OCC(=O)Nc2ccc(NC(C)=O)cc2)c1C
1.3 (≈ 3.57 µM) | COCC(C)N1CC(O)=C(c2nc(-c3ccc(Cl)cc3)cs2)C1=N (centres undefined)
> 48.1 | O=C(NNC(=O)c1cc([N+](=O)[O-])ccc1Cl)c1cccnc1
19.7 (≈ 52.8 µM) | O=C(Oc1ccc(Cl)c(Cl)c1)C1=CC=CN2CCS(=O)(=O)N=C12
6.8 (≈ 22.3 µM) | CCN(CC)c1cccc(OC(=O)c2cccnc2Cl)c1
> 44.2 | O=C1CC(N2CCOCC2)C(=O)N1c1ccc(Cl)cc1 (centres undefined)
6.9 (≈ 19.6 µM) | O=C(C(=O)N1CCN(c2ccc(F)cc2)CC1)c1c[nH]c2ccccc12
6 (≈ 19 µM) | CC(C)C(=O)Nc1cc(-c2nc3ncccc3o2)ccc1Cl
26.4 (≈ 85 µM) | CC(C)CC(=O)N1CCN(Cc2ccc3ccccc3c2)CC1
> 51.4 | CC(C(=O)NCc1ccccc1Cl)N1C(=O)c2ccccc2C1=O (centres undefined)
7.7 (≈ 25.4 µM) | O=C1NC(c2ccc(Cl)c([N+](=O)[O-])c2)Nc2ccccc21 (centres undefined)

solubility kinetic [µg/mL] | SMILES
4.6 (≈ 12.5 µM) | Cn1c(=O)c2ccccc2n(CC(=O)Nc2ccc3c(c2)OCCO3)c1=O
38 (≈ 141 µM) | COc1ccc(NCC(=O)N2CCCC2)cc1Cl
> 49.6 | CN(C(=O)c1ccnn1C)C1CCCN(Cc2ccccc2F)C1 (centres undefined)
2.4 (≈ 6.34 µM) | O=C1CN(C(=O)COC(=O)c2ccc(C(F)(F)F)cc2)c2ccccc2N1
> 45.9 | O=C(COC(=O)c1cnccn1)NCc1ccc(Cl)cc1
< 0.7 | Cc1ccc(C(=O)OCC(=O)Nc2cccc(Cl)c2C)c(O)c1
47.6 (≈ 145 µM) | COc1ccc2c(c1)[nH]c1c(=O)n(CCN3CCOCC3)cnc12
> 40.5 | COc1ccccc1S(=O)(=O)N1CCNC(=O)C1
24.4 (≈ 77.5 µM) | Cc1c(C(=O)NC(C)c2ccccn2)oc2c(Cl)cccc12 (centres undefined)
> 42.6 | CN1C(=O)c2ccc(C(=O)NCc3ccco3)cc2C1=O
> 47 | O=C(c1cccc([N+](=O)[O-])c1)N1CCN(c2ncccn2)CC1
45.9 (≈ 138 µM) | COc1cccc(NC(=O)N2CCCC2C(=O)NC2CCCC2)c1 (centres undefined)
20.8 (≈ 62.6 µM) | O=C(Oc1cccc(OC(=O)N2CCCCC2)c1)N1CCCCC1
5.2 (≈ 16.1 µM) | CC(=O)Nc1ccc(/C=C/C(=O)c2ccc3c(c2)OCCO3)cc1
> 50.2 | O=C(NCC(c1ccco1)N1CCOCC1)c1cccc(Cl)c1 (centres undefined)
